{"source": "patent US20040018991A1", "about": "“Topical treatment for mastalgia” (priority 2000, published 2004)", "assay": "healing test: topical 4-hydroxy-androstenedione cream applied to the breasts of patients with mastalgia", "type": "in vivo, human", "text": "Treatments acting with 4-hydroxy-androstenedione for mastalgia syndrome are described, wherein instead of 4-hydroxy-androstenedione, other aromatase inhibitors may be used.\nFindings: Tension-related pains in both breasts occurring 3 to 5 days before each menstruation, apparently bundled shooting into the breast nipples. Then slowly decreasing pains, symptoms and signs and tension states during the menstruation period until about the 10th day after onset of menstruation.\nA cream treated with 0.5 wt. % of 4-hydroxy-androstenedione was used (0.5% of 4OH-androstenedione introduced into 100 ml of ash-based cream). 4 g were administered daily, and specifically 2 g applied externally to each breast and carefully massaged in.\nStart of healing test about 3 weeks before the period.\nContinuation of the healing test with daily administration of 4-OH-androstenedione cream 0.5% strength.\nFindings: For years, severe swelling and tension feeling occurring in each case 3-5 days before menstruation with diffuse pain symptoms and signs radiating into the thorax, which is almost unbearable until the onset of menstruation. For years, unable to work 1-3 days per month due to these pains. Disappearance of symptoms and signs only on 8th-12th day after onset of menstruation.\nHealing test using 1% strength 4-OH-androstenedione cream (1 g of 4-OH-androstenedione introduced into 100 ml of ash-based cream).\nDose 1×daily 4 g, in each case 2 g applied to each breast.\nThe start of the healing test took place about 2 weeks before onset of menstruation.\nContinuation of the healing test using 0.5% strength 4-OH-androstenedione cream (0.5 g of 4-OH-androstenedione introduced into 100 ml of ash-based cream) 4 g daily, that is 2 g applied to each breast.", "key": {"[1]": {"details": "Example 2, 1% strength cream, 1x daily 4 g, subsequent period 2"}, "[2]": {"details": "Example 2, continuation with 0.5% strength cream, 4 g daily, subsequent periods"}}}
{"smiles": "C[C@]12CCC(=O)C(O)=C1CC[C@@H]1[C@@H]2CC[C@]2(C)C(=O)CC[C@@H]12", "note": "[4-hydroxy-androstenedione, 4-hydroxyandrostenedione]", "values": [{"measurement": "tension pain", "setting": "Example 1, person, 0.5 wt. % cream, 4 g daily (2 g each breast), first subsequent period", "result": "Significantly reduced tension pain"}, {"measurement": "pain", "setting": "Example 1, 0.5% strength cream daily, second subsequent period", "result": "complete freedom from pain"}, {"measurement": "course of symptoms and signs", "setting": "Example 1, 0.5 wt. % cream, 4 g daily, first subsequent period", "result": "symptoms and signs subsided more rapidly"}, {"measurement": "time to pain-free after start of menstruation", "setting": "Example 1, 0.5 wt. % cream, 4 g daily, first subsequent period (before treatment until about the 10th day)", "result": 5, "unit": "days"}, {"measurement": "course of mastalgia", "setting": "Example 2, person, 1% strength cream, 1x daily 4 g, subsequent period 1", "result": "somewhat blander course"}, {"measurement": "inability to work", "setting": "Example 2, 1% strength cream, 1x daily 4 g, subsequent period 1 (before treatment 1-3 days per month)", "result": 1, "unit": "days"}, {"measurement": "inability to work", "setting": "[1]", "result": "no inability to work"}, {"measurement": "pain symptoms and signs", "setting": "[1]", "result": "considerably lower pain symptoms and signs"}, {"measurement": "swelling and tension feeling", "setting": "[1]", "result": "Significantly lower swelling and tension feeling"}, {"measurement": "mastopathy-related inability to work", "setting": "[2]", "result": "no mastopathy-related inability to work"}, {"measurement": "pain", "setting": "[2]", "result": "practically pain-free"}, {"measurement": "swelling and tension feelings", "setting": "[2]", "result": "Hardly any swelling and tension feelings"}]}
